The structures appear in SMILES notation.

Experimental findings from patent US20130150327A1, “COMPOSITION FOR PREVENTING HAIR LOSS OR STIMULATING HAIR GROWTH” (Biopid Corporation, priority 2010, published 2013) are described below.

One experiment has as its system C3H/HeNCrljBgi mice. Put plainly: Animal Test 3: organic acid effect and soy extracted phospholipid effect, hair growth area. Type of experiment: in vivo, mouse. To be noted: 2.5 weeks, twice a day, phospholipids 20 mg/ml, minoxidil 5% applied to all groups except Group 1 30 minutes before the composition.
The subject of experiment [1] is mice with DNFB-induced allergic dermatitis. Put plainly: Animal Test 1: hair follicle growth in back skin tissue of mice with DNFB-induced allergic dermatitis. Type of experiment: in vivo, mouse. To be noted: comparators: Tacrolimus ointment (FIG. 5), 0.1% dexamethasone in ethanol (FIG. 6), twice a day, 10 days.
Excerpt: In order to prepare animal models with an atopic dermatitis, or a contact dermatitis and allergic dermatitis, After 1 week of sensitizing with DNFB, DNFB was applied to the backs of mice total 10 times per 2 weeks to induce an artificial allergic dermatitis. […] Since applying DNFB five times, the composition of the present invention, Tacrolimus ointment (trade name, Protopic, Astella Pharma Korea, Inc.), and dexamethasone (Sigma Chem. Co. USA, 0.1% solution dissolved in ethanol) were applied to the backs of mice occurred with inflammation twice a day in the amount of 60 ml, respectively. At 10 days after applying, the mice tissues were collected to test experiments.

Description for C3H/HeNCrljBgi mice: In addition, the composition was prepared by using soy lecithin (phospholipid extracted from soy, #86015-1201, Junsei Chemical, Japan), and then effect of the composition on hair growth was compared. C3H/HeNCrljBgi species of 7 ages of weeks (Orient Bio, Sungnam, Korea) were purchased as the experimental mice, and then used for the test. […] The composition of the present invention was applied for 2.5 weeks, and 60 ml of the composition was applied on the backs of the hairs-removed mice twice a day. The concentration of the applied phospholipids was 20 mg/ml. As a measurement of hair growth in the mice, the pictures of the mice of each experimental group were taken, respectively, and then the ratio of the hair growth area in the hairs-removed area was calculated.

Consider `Nc1cc(N2CCCCC2)nc(N)[n+]1[O-]` [Minoxidil, minoxidil], for which, in the experiment with C3H/HeNCrljBgi mice, the “Hair growth area (ratio of the hair growth area in the hairs-removed area)” value came out at 10.2. Regarding `C=CC[C@@H]1/C=C(\C)C[C@H](C)C[C@H](OC)[C@H]2O[C@@](O)(C(=O)C(=O)N3CCCC[C@H]3C(=O)O[C@H](/C(C)=C/[C@@H]3CC[C@@H](O)[C@H](OC)C3)[C@H](C)[C@@H](O)CC1=O)[C@H](C)C[C@@H]2OC` [Tacrolimus, tacrolimus], the “hair follicle growth in mice tissues” value in experiment [1] was “new hair follicles were formed”.
